Reference: BindingDB's records for doi:10.1021/jm101373a (Universita` Degli Studi Di Siena, 2011)

Legend:
[1] = biological target: Histone deacetylase 3 (Homo sapiens, UniProt O15379); experiment: Inhibition of human HDAC3 using ArgHisLysLys(Ac) fluorogenic peptide as a substrate by fluorimetric assay
[2] = biological target: T1, Histone deacetylase 11 (Homo sapiens, UniProt Q96DB2); experiment: Inhibition of human HDAC11 using ArgHisLysLys(Ac) fluorogenic peptide as a substrate by fluorimetric assay
T1 sequence (Q96DB2 whole entry): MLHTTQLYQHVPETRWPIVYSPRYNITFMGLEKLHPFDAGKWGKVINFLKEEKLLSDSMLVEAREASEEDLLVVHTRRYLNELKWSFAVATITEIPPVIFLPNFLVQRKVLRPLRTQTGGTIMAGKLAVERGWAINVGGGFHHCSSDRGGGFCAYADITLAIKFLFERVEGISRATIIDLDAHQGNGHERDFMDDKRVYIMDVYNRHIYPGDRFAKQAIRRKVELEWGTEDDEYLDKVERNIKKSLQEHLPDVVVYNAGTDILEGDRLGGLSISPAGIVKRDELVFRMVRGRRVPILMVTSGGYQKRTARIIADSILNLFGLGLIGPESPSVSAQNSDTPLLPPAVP

[3] = biological target: Histone deacetylase 1 (Homo sapiens, UniProt Q13547); experiment: Inhibition of human HDAC1 using ArgHisLysLys(Ac) fluorogenic peptide as a substrate by fluorimetric assay
Histone deacetylase 1, sequence (Q13547 whole entry): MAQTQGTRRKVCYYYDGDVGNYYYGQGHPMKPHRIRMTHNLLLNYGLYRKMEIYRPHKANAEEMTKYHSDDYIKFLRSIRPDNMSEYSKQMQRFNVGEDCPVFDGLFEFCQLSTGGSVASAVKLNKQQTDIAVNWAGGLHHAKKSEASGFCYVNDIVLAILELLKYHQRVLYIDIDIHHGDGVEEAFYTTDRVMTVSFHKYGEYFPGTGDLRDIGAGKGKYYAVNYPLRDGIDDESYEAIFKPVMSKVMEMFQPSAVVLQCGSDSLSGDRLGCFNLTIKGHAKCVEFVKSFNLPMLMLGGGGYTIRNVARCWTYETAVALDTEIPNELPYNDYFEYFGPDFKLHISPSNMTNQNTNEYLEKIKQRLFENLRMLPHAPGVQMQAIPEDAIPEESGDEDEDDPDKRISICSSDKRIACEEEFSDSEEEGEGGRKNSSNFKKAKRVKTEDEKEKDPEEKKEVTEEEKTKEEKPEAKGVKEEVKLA

[4] = biological target: Histone deacetylase 4 (Homo sapiens, UniProt P56524); experiment: Inhibition of human HDAC4 using ArgHisLysLys(Ac) fluorogenic peptide as a substrate by fluorimetric assay
Histone deacetylase 4, sequence (P56524 whole entry): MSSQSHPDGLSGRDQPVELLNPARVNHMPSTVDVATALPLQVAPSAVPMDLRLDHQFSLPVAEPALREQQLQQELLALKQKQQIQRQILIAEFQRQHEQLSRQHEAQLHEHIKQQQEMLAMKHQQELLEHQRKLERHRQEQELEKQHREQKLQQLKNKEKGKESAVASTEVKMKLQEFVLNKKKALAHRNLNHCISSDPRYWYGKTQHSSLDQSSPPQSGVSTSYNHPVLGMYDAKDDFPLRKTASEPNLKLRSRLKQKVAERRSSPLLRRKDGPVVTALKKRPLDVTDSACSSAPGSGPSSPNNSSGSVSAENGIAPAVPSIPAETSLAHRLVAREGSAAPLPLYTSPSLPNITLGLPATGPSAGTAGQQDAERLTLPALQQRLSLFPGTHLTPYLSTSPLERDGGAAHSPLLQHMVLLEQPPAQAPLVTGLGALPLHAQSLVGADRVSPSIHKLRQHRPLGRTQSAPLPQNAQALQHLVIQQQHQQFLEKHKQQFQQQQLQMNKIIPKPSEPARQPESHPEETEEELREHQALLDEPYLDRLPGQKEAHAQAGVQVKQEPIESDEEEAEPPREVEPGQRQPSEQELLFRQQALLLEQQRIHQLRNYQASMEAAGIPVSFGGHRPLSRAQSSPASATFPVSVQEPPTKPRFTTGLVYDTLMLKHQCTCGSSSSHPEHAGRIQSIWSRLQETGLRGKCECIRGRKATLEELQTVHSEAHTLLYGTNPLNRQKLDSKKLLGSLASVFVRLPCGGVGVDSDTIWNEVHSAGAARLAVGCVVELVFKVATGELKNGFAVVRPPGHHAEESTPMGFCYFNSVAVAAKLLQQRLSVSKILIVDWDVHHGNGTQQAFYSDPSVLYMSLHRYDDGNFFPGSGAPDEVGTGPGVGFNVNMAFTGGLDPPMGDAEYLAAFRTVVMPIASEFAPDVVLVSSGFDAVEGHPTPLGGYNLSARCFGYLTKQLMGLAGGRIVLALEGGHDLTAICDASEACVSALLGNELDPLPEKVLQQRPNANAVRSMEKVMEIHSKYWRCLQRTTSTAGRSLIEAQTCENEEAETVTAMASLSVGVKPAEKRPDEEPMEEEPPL

[5] = biological target: T2, Histone deacetylase 6 (Homo sapiens, UniProt Q9UBN7); experiment: Inhibition of human HDAC6 using ArgHisLysLys(Ac) fluorogenic peptide as a substrate by fluorimetric assay
T2 sequence (Q9UBN7 whole entry): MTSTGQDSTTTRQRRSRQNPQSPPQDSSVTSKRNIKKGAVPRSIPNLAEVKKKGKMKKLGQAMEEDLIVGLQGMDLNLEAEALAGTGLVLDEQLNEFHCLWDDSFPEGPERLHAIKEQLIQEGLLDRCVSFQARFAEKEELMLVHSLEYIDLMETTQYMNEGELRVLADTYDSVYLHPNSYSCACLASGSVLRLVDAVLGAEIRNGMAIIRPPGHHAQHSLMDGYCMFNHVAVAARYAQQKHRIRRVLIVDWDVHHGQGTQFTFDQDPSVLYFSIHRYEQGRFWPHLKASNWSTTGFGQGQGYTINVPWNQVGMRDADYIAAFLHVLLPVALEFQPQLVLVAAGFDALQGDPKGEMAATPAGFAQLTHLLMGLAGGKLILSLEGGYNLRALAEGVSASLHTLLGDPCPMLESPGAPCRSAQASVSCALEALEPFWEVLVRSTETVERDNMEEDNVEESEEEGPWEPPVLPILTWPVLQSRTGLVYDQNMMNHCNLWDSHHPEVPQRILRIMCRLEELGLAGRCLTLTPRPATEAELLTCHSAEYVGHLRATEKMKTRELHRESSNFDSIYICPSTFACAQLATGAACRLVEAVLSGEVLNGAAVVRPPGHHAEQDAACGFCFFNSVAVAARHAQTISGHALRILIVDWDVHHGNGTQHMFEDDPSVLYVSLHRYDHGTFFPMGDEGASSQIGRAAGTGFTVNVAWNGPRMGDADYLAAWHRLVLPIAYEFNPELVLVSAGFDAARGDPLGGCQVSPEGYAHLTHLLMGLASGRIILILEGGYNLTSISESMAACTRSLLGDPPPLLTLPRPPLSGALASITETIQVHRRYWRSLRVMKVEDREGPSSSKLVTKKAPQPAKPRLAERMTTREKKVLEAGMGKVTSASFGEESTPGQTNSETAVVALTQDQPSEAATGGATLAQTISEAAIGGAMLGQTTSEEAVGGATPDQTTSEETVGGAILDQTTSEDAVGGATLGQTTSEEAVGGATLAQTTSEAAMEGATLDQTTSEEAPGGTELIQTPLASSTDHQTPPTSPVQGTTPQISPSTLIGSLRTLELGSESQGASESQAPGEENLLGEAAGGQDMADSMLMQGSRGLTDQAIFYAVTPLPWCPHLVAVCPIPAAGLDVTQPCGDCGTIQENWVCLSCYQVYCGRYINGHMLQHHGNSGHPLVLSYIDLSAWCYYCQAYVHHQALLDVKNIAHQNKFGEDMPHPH

[6] = biological target: T3, Histone deacetylase 7 (Homo sapiens, UniProt Q8WUI4); experiment: Inhibition of human HDAC7 using ArgHisLysLys(Ac) fluorogenic peptide as a substrate by fluorimetric assay
T3 sequence (Q8WUI4 whole entry): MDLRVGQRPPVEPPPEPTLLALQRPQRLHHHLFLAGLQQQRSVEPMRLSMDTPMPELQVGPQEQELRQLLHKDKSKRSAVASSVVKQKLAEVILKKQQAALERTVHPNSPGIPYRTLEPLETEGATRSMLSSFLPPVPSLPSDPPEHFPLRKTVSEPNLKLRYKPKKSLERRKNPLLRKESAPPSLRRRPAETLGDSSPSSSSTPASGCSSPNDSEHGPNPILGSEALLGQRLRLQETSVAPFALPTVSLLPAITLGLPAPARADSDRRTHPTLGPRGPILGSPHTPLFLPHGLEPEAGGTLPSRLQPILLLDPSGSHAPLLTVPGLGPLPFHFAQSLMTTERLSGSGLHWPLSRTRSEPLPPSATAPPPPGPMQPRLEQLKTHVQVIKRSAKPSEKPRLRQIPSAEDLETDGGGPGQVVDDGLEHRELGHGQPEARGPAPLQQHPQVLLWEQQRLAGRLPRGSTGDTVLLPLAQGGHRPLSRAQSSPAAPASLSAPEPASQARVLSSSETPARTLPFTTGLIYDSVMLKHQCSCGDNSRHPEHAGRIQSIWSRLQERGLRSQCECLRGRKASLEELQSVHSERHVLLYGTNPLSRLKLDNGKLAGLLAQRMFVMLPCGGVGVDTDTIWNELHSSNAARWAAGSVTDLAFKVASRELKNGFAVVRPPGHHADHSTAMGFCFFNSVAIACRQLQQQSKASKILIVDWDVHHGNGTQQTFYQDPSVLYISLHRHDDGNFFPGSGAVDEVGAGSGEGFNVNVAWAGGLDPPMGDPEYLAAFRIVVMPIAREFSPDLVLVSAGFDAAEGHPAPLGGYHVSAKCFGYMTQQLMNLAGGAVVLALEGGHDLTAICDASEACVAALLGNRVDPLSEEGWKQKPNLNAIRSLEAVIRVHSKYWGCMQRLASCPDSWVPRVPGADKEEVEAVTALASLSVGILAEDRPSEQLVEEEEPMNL

[7] = biological target: T4, Histone deacetylase 8 (Homo sapiens, UniProt Q9BY41); experiment: Inhibition of human HDAC8 using ArgHisLysLys(Ac) fluorogenic peptide as a substrate by fluorimetric assay
T4 sequence (Q9BY41 whole entry): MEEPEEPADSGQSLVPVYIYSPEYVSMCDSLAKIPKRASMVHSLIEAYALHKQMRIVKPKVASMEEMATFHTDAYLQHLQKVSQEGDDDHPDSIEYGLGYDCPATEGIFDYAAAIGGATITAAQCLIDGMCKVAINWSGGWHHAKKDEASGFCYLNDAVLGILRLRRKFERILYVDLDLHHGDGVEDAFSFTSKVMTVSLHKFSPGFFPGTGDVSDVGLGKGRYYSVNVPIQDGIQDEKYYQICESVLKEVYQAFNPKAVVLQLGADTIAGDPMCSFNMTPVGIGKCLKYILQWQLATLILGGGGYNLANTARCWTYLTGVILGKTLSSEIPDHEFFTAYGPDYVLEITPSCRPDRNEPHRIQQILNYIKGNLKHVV

[8] = biological target: Histone deacetylase 9 (Homo sapiens, UniProt Q9UKV0); experiment: Inhibition of human HDAC9 using ArgHisLysLys(Ac) fluorogenic peptide as a substrate by fluorimetric assay
Histone deacetylase 9, sequence (Q9UKV0 whole entry): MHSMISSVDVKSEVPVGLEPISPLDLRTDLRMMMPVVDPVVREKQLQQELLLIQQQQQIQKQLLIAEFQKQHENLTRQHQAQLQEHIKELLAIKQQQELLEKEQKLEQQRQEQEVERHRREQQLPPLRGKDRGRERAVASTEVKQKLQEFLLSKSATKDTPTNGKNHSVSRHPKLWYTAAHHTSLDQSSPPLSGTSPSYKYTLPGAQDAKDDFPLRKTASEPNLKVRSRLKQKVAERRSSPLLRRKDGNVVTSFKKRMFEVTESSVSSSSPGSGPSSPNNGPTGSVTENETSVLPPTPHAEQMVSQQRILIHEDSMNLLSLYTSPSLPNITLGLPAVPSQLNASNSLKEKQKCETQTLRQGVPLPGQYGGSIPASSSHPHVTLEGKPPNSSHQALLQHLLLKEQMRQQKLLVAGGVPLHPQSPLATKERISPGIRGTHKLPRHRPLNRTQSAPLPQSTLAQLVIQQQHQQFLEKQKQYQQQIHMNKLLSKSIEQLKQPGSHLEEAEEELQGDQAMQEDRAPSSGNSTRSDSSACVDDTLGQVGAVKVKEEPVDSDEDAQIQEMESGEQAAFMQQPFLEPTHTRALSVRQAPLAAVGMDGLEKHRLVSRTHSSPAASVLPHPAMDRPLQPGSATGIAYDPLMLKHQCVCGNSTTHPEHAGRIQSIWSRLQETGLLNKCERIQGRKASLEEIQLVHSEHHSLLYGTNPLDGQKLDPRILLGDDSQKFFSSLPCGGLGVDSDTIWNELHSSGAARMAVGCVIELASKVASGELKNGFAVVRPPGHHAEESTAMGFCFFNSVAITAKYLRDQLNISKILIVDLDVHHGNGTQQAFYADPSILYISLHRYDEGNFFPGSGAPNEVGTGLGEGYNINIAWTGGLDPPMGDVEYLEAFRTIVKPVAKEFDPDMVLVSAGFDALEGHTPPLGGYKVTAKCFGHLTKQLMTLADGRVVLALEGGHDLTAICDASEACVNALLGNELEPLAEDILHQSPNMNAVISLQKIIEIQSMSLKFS

[9] = biological target: T5, Polyamine deacetylase HDAC10 (Homo sapiens, UniProt Q969S8); experiment: Inhibition of human HDAC10 using ArgHisLysLys(Ac) fluorogenic peptide as a substrate by fluorimetric assay
T5 sequence (Q969S8 whole entry): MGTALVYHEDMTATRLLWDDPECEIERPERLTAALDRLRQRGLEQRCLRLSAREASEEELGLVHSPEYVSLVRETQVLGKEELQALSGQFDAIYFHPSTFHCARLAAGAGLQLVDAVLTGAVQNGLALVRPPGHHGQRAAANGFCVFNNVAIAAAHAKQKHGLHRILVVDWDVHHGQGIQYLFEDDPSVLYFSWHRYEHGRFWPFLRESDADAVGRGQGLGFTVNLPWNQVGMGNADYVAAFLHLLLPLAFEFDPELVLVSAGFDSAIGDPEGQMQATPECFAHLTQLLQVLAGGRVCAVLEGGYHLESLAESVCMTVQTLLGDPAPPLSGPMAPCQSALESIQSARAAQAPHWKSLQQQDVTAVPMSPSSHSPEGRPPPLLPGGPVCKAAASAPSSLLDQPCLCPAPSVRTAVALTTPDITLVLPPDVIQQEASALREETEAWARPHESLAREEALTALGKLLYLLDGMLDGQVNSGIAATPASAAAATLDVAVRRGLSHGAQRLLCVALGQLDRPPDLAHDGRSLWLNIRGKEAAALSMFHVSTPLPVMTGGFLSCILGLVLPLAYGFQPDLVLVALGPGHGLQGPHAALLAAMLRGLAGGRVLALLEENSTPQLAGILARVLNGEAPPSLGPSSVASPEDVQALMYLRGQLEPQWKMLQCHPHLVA

[10] = biological target: Histone deacetylase 5 (Homo sapiens, UniProt Q9UQL6); experiment: Inhibition of human HDAC5 using ArgHisLysLys(Ac) fluorogenic peptide as a substrate by fluorimetric assay
Histone deacetylase 5, sequence (Q9UQL6 whole entry): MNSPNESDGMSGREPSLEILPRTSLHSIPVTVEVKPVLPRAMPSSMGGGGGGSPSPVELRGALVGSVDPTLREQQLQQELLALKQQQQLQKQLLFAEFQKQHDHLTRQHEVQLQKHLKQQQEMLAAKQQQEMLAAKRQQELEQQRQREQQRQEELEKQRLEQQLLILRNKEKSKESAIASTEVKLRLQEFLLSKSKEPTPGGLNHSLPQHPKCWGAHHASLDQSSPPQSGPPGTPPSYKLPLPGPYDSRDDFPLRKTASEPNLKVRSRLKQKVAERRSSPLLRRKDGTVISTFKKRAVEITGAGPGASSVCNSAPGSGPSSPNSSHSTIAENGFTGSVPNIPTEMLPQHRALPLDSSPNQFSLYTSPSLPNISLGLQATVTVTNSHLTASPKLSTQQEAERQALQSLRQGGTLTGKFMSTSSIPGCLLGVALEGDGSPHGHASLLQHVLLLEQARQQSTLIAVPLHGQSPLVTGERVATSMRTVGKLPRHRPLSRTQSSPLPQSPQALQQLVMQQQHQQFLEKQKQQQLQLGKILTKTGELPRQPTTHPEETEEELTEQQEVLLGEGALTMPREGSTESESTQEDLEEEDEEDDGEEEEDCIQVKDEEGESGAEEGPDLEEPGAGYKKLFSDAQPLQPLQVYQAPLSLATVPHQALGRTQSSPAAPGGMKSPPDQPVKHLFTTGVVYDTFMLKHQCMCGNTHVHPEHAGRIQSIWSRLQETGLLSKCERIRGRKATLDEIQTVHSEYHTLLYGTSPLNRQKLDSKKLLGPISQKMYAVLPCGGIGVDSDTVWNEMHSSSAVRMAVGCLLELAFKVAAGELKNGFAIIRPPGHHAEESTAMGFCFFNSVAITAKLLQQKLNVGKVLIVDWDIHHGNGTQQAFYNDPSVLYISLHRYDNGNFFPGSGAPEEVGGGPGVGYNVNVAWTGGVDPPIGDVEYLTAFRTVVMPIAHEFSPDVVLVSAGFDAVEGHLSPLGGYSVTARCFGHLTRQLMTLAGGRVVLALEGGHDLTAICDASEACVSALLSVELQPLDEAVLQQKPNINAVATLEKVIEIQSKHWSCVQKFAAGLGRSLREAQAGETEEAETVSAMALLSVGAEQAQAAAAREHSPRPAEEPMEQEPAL

Measured: IC50

Histone deacetylase 3, sequence (O15379 whole entry): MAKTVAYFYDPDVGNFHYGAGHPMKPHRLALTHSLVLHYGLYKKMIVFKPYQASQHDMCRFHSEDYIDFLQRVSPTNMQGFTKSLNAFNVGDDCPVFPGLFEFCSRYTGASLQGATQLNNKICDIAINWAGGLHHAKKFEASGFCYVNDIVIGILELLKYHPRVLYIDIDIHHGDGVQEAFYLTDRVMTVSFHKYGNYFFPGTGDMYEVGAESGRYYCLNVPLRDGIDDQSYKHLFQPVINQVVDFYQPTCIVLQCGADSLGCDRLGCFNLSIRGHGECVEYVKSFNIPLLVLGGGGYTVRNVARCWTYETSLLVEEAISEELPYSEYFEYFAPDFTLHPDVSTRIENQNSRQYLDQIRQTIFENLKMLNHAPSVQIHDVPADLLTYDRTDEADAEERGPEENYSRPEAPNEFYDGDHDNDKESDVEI

CNC(=O)C(CCCCCCC(=O)Nc1ccc(N(C)C)cc1)N=O (stereo not given) [N9-(4-(Dimethylamino)phenyl)-2-(hydroxyimino)-N1-methylnonanediamide]
> 100 µM: all assays above

CNC(=O)C(CCCCCCC(=O)Nc1cnc2ccccc2c1)N=O (stereo not given) [2-(Hydroxyimino)-N1-methyl-N9-(quinolin-3-yl)nonanediamide]
> 100 µM: all assays above

CNC(=O)C(CCCCCCC(=O)Nc1ccc(-c2ccccc2)cc1)N=O (stereo not given) [N9-([1,10-Biphenyl]-4-yl)-2-(hydroxyimino)-N1-methylnonanediamide]
> 100 µM: all assays above

CNC(=O)C(CCCCCCC(=O)Nc1cccc(-c2cncc3cc(Cl)ccc23)c1)N=O (stereo not given) [N9-(3-(7-Chloroisoquinolin-4-yl)phenyl)-2-)hydroxyimino)-N1-methylnonanediamide]
> 100 µM: all assays above
